Source: patent US11000039B2, “Composition for controlling nematode comprising grammicin compound as effective ingredient and uses thereof” (INDUSTRY FOUNDATION OF CHONNAM NATIONAL UNIVERSITY, priority 2016, dated 2021)
In brackets after ≈: the same amount, converted by molar mass.

Assays:
[1] = test system: carrot root knot nematode (M. hapla) 2nd stage juveniles; experiment: Mortality against 2nd stage juveniles of carrot root knot nematode; parameters: species or system Meloidogyne hapla; details: 72 h; for LC50: 2nd stage juveniles
[2] = test system: eggs of sweet potato root knot nematode (M. incognita); experiment: Egg hatching inhibitory activity against sweet potato root knot nematode; parameters: species or system Meloidogyne incognita; details: 336 h, 14 days after treatment, read-out: Rate of inhibiting egg hatching; for inhibition at 3.1 µg/mL: 3.1 μg/ml; for inhibition at 25 µg/mL: 25 μg/ml
Procedure: The experiments were carried out in triplicate. […] Egg hatching inhibitory activity (%)=[(C−T)/C]×100,
C=Egg hatching rate of control group*, T=Egg hatching rate of treatment group *Egg hatching rate (%)=Number of juveniles/[Number of egg+Number of juveniles]×100

[3] = test system: sweet potato root knot nematode (M. incognita) 2nd stage juveniles; experiment: organism not typed; details: for LC50: Meloidogyne incognita, read-out: LC50 M. incognita 72 h
Procedure: The three layers were finally applied at concentrations of 15.6, 31.3, 62.5, 125, 250, 500, or 1,000 μg/ml. As a control group, treatment with 1% acetone and methanol was carried out, and, after the treatment, the 96-well plate was shaken for 30 seconds so that the test compound is mixed well. Thereafter, the plate was added to a plastic container having relative humidity of 100% and stored at room temperature. To obtain eggs of a root knot nematode from roots of tomato infected by root knot nematode, plant roots were washed with tap water to remove adhering soil and cut into 1 cm pieces. Eggs were extracted in 0.5% sodium hypochlorite solution for 1 min and collected by passage through 45 and 25 μm sieves. Second-stage juveniles (J2) were allowed to hatch in modified Baermann funnels at 20° C.
Ninety nine μl of 50 2nd stage juveniles of sweet potato root knot nematode were added to each well of a 96-well plate, and then, according to a treatment of 1% solvent extract, the final volume per well was adjusted to 100 μl. […] 72 Hours after the treatment with a test compound, mortality was determined under an optical inverted microscope by using the equation shown below. As for the mortality, the linear nematode showing no movement was taken as dead nematode, the nematode showing movement of flexible curve was taken as live nematode, and the mortality was examined using the following equation. Mortality (%)=[Mortality percentage in treatment−mortality percentage of negative control/(100−mortality percentage in negative control)]×100
To determine the mortality and activity of inhibiting egg hatching of the purified compound, the compound was dissolved in methanol and trans-cinnamaldehyde as a control agent was dissolved in ethanol and used for the experiment. […] Furthermore, the activity of inhibiting egg hatching of sweet potato root knot nematode (M. incognita) was also examined at the same concentration. As a non-treatment group, 1% methanol and ethanol were used, and, according to the method explained above, the mortality and activity of inhibiting egg hatching were examined. The experiments were carried out in triplicate. The mortality was determined 3 days after the treatment of a test compound while the rate of inhibiting egg hatching was determined 14 days after the treatment of a test compound. The rate of inhibiting egg hatching was calculated based on the following equation. Egg hatching inhibitory activity (%)=[(C−T)/C]×100,

colon cancer cell SW.71 = experiment: MTT cell viability assay (human cytotoxicity); details: for Cytotoxicity, in words: test concentration 0.1 to 10 μg/ml; for Cytotoxicity, in words / Cell viability compared to the non-treatment group: 24 hours
Procedure: The colon cancer cell SW.71 as a cell line used for the experiment was kept in −196° C. liquid nitrogen tank until use. The colon cancer cell SW.71 was added, in RPMI-1640 (Life Technologies Inc., USA) medium, with 10% FBS (fetal bovine serum, Gibco) and 1% penicillin-streptomycin, cultured for 72 hours in an incubator at condition of 37° C., 5% CO2, and then used. As for the MTT reagent, thiazolyl blue tetrazolium bromide was used, and, after dissolving it in PBS (phosphate buffer saline) to have final concentration of 5 mg/ml, it was kept at 4° C. under light-shielding condition. The colon cancer cell SW.71 was inoculated, in an amount of 130 μl, to a 96-well plate to have concentration of 5×10^3 or 1×10^4 cells/well. […] After culturing the cells for 24 hours, the MTT solution was added in an amount of 14.5 μl for each well followed by culture for 2 hours or longer at 37° C. The medium was carefully removed and DMSO was added in an amount of 108.5 μl per well to terminate the reaction followed by stirring using a plate shaker for 30 minutes at room temperature, dark conditions. Thereafter, by using a microplate ELISA reader, absorbance at a wavelength of 540 nm was measured, and the cell viability after culture for 24 hours was examined. For the non-treatment group, 1% MeOH was added to a DMEM medium. All the experiments were repeated in triplicate.

Compound: O=C1C=C2C(O)C=COC2O1 (stereo not shown) [grammicin]
- mortality at 25 µg/mL ([1]; 25 μg/ml, 3 days after treatment): 62.4%
- mortality at 50 µg/mL ([1]; 50 μg/ml, 3 days after treatment): 100%
- LC50 [1]: 3.12 µg/mL (≈ 20.2 µM)
- inhibition at 3.1 µg/mL [2]: 68.2%
- inhibition at 25 µg/mL [2]: 91.4%
- Mortality against root knot nematodes, in words (summary) [3]: very high mortality
- mortality at 12.5 µg/mL ([3]; 72 h): 52.8%
- mortality at 50 µg/mL ([3]; 72 h): 100%
- LC50 ([3]; 72 h): 15.9 µg/mL (≈ 103 µM)
- Cytotoxicity for colon cancer cells, in words (summary) (colon cancer cell SW.71; at a test concentration): no toxicity
- Cytotoxicity, in words (colon cancer cell SW.71; 1×10^4 cells/well): no cytotoxicity
- Cytotoxicity, in words (colon cancer cell SW.71; 5×10^3 cells/well): no cytotoxicity

Compound: O=C1C=C2C(=CCOC2O)O1 (stereo not shown) [patulin]
- Mortality against root knot nematodes, in words (summary) [3]: almost no activity
- mortality at 100 µg/mL [3]: 38.7%
- Cell viability compared to the non-treatment group (colon cancer cell SW.71; 0.1 μg/ml, 1×10^4 cells/well): 66.2%
- Cell viability compared to the non-treatment group (colon cancer cell SW.71; 0.1 μg/ml, 5×10^3 cells/well): 72.2%
- Cell viability compared to the non-treatment group (colon cancer cell SW.71; 0.5 μg/ml, 1×10^4 cells/well): 80.5%
- Cell viability compared to the non-treatment group (colon cancer cell SW.71; 0.5 μg/ml, 5×10^3 cells/well): 72.1%
- Cell viability compared to the non-treatment group (colon cancer cell SW.71; 1 μg/ml, 1×10^4 cells/well): 75.3%
- Cell viability compared to the non-treatment group (colon cancer cell SW.71; 1 μg/ml, 5×10^3 cells/well): 42.1%
- Cell viability compared to the non-treatment group (colon cancer cell SW.71; 5 μg/ml, 1×10^4 cells/well): 58.4%
- Cell viability compared to the non-treatment group (colon cancer cell SW.71; 5 μg/ml, 5×10^3 cells/well): 43.5%
- Cell viability compared to the non-treatment group (colon cancer cell SW.71; 10 μg/ml, 1×10^4 cells/well): 27.6%
- Cell viability compared to the non-treatment group (colon cancer cell SW.71; 10 μg/ml, 5×10^3 cells/well): 31.4%

Compound: O=C/C=C/c1ccccc1 [trans-cinnamaldehyde]
- LC50 [1]: 8.56 µg/mL (≈ 64.8 µM)
- inhibition at 3.1 µg/mL [2]: 31.3%
- inhibition at 25 µg/mL [2]: 65%
- LC50 ([3]; 72 h): 18.3 µg/mL (≈ 139 µM)
